A short description of data set [1]: Solubility of prodrugs in aqueous buffers (absorbance at 790 nm). In kind it is physicochemical. On the procedure: Prodrugs 5, 7 and 9 (known control) were dissolved in DMSO at concentrations of 15, 10, 5, 2, 1.5, 1, and 0.2 mM. These solutions (10 μL) were transferred to quartz cuvettes containing 990 μL of either Dulbecco's phosphate-buffered saline (DPBS) or Roswell Park Memorial Institute (RPMI) medium containing 20% of fetal bovine serum (FBS) to obtain solutions (or suspensions) with final concentrations of prodrugs-150, 100, 50, 20, 15, 10, and 2 μM. The absorbance at 790 nm of the resulting solutions/suspensions was measured and plotted as a function of the concentration of prodrugs.

The next data set has as its system BL-2 cells. Nature of the data set: Viability of suspension BL-2 cells (MTT). It is filed as cell-based. On the procedure: The suspension of BL-2 cells in the RPMI 1640 medium containing 5% FBS (for 24- and 48 h assays) or 10% FBS (for 96 h assays) 1% L-glutamine, and 1% penicillin/streptomycin was spread in the wells of a 96-well microtiter plate. Every plate contained 50,000 cells (with the exception of the 96h-experiment, for which 25,000 cells were used) per well per 100 μL. Stock solutions of prodrugs of different concentrations (1 μL, solvent DMSO) were added to the wells and incubated for 24–96 h. Four experiments were conducted for each concentration of the prodrug. Finally, 3-(4,5-dimethylthiazol-2-yl)-2,5-diphenyltetrazolium bromide (MTT; 20 μL of the solution prepared by dissolving MTT (5 mg) in PBS buffer (1 mL)) was added to each well, incubated for 3 h, treated with sodium dodecyl sulfate (SDS) solution (90 μL, 10% solution in 0.01 M aqueous HCl), and incubated overnight. Then the intensity of absorbance at 590 nm was measured (MTT is converted to blue dye (λmax = 590 nm) in live cells). The absorbance at 690 nm was taken as a baseline value.

Another data set relates to A2780 cells. Nature of the data set: Viability of adherent A2780 cells (MTT). In kind it is cell-based, human. On the procedure: (§1) Adherent A2780, DU-145 and NHDF cells were grown as mentioned before. Then, the cells were resuspended in the RPMI 1640 (DMEM for HDFa cell line) medium containing 5% FBS (for 24- and 48 h assays) or 10% FBS (for 96 h assays) 1% L-glutamine, and 1% penicillin/streptomycin. This suspension was spread in the wells of a 96-well microtiter plate. Every well in the plates contained 25,000 cells (exceptions: 12,500 cells for the 96h-assay and 10,000 cells for experiments with HDFa cell line) per well per 100 μL and was left at 37 °C in the chamber filled with CO2 (5%) overnight. Stock solutions of prodrugs of different concentrations (1 μL, solvent DMSO) were added to the wells and incubated for 24–96 h. Four experiments were conducted for each concentration of the prodrug. Finally, 3-(4,5-dimethylthiazol-2-yl)-2,5-diphenyltetrazolium bromide (MTT; 20 μL of the solution prepared by dissolving MTT (5 mg) in PBS buffer (1 mL)) was added to each well, incubated for 3 h, treated with sodium dodecyl sulfate (SDS) solution (90 μL, 10% solution in 0.01 M aqueous HCl), and incubated overnight. Then the intensity of absorbance at 590 nm was measured (MTT is converted to blue dye (λmax = 590 nm) in live cells). The absorbance at 690 nm was taken as a baseline value.

The test system of a further data set is DU-145 cells. Nature of the data set: Viability of adherent DU-145 cells (MTT). It is filed as cell-based, human. On the procedure: as §1
For data set [2], the system named is Jurkat cells. Nature of the data set: Viability and cell death of Jurkat cells (Annexin A5-FITC/PI flow cytometry). In kind it is cell-based, human. The conditions noted are these: for Mechanism of cell death of Jurkat cells: 48 h, Ax/PI staining; for IC50: 48 h incubation. On the procedure: Jurkat cells were counted in MUSE Cell Analyzer using MUSE® Count &Viability Assay Kit (Merck-Millipore, Billerica, MA, USA) and adjusted to a density of 1.0 × 10^5/mL in RPMI 1640 medium (with 10% FCS and 1% glutamine). A total of 9000 cells per well per 90 μL were seeded into 96 well culture plates. The 50 mM prodrug stock solutions were diluted to 300, 100, 30, and 10 μM in cell culture medium and 10 μL of the dilutions was pipetted to the cells, receiving final test concentrations of 30, 10, 3, and 1 μM. Every concentration was tested in triplicates. Cells with corresponding amounts of DMSO served as negative controls. […] was incubated with 200 μL of freshly prepared staining solution, consisting of 1 μl Annexin A5-Fitc, 0.4 μL 1,1′,3,3,3′,3′-hexamethylindodicarbocyanine iodide (DiIC1(5)) (both from Thermo Fisher Scientific, Waltham, MA, USA), 66.6 ng propidiumiodide (PI) and 33 μM monobromobimane (MBB, both from Sigma-Aldrich, Taufkirchen, Germany) per 1 mL Ringer’s solution (Fresenius Kabi AG, Bad Homburg, Germany). Cells were incubated for 20 min at 4 °C and then analyzed in Gallios cytofluorometer™ (Beckman Coulter, Fullerton, CA, USA). Fitc and propidium iodide were excited at 488 nm; Fitc fluorescence was recorded on the FL1 sensor (525/38 nm band pass, BP) and propidium iodide fluorescence was detected on FL3 sensor (620/30 nm BP), DiIC1(5) fluorescence was excited at 638 nm and detected on FL6 sensor at 675/20 nm. Monobromobimane fluorescence was excited at 405 nm and detected on FL9 sensor at 430/40 nm. To eliminate any fluorescence bleed-through, electronic compensation was used. Data were analyzed employing Kaluza™ software Version 1.2 (Beckman Coulter, Fullerton, CA, USA) and processed in Microsoft Excel. Cells negative for Annexin A5- Fitc and propidium iodide were considered viable. IC50 values were determined by fitting the % values of Ax-PI- cells versus drug concentration with a sigmoidal curve using GraphPad Prism software. Reduced glutathione (an intracellular thiol) can be detected by monobromobimane, a dye that becomes fluorescent after non-enzymatic binding to thiols. For analysis of the amount of mitochondrial membrane potential or reduced glutathione, the mean fluorescence index (MFI) was determined from viable cells by gating on Ax-PI-events.

For a further data set, the system named is HDFa cells. As to the kind of experiment: Viability of adherent HDFa cells (MTT). It is filed as cell-based, human. Conditions: 48 h incubation, normal cells. On the procedure:
as §1

Data set [3] can be described thus: Generation of ROS in cell free settings (2′,7′-dichlorofluorescin oxidation in the presence of H2O2). The conditions noted are these: H2O2 10 mM; for Initial rate (dF/dt)0 of DCFH oxidation in the presence of H2O2: compound 49.5 μM, DCFH 10 μM, GSH 5 mM, EDTA 10 mM, MOPS buffer, 37 °C; for Activity in DCFH oxidation assay relative to prodrug 5: more active than 5, 49.5 μM. On the procedure:
2′,7′-Dichlorofluorescin diacetate (DCFH-DA, 4.9 mg) was dissolved in 100 µL DMF and mixed with 0.1 M NaOH (900 µL). This mixture was incubated on a shaker for 30 min at 25 °C in the dark to obtain 10 mM 2′,7′-dichlorofluorescin (DCFH) stock solution. Next, 3-(N-morpholino)propanesulfonic acid buffer (MOPS buffer 100 mM, pH: 7.4) containing N,N,N’,N’-ethylenediaminetetraacetic acid (EDTA, 10 mM), glutathione (GSH, 5 mM) and H2O2 (10 mM) was prepared. Finally, DCFH was diluted in this buffer to 10 µM as the final concentration. Monitoring of the fluorescence was started (λex: 501 nm, λem: 525 nm). […] DMF and FeSO4 in DMF were used as controls. The measurement was conducted for 300 min (Table S2, Figure 1A).

Data set [4] concerns Jurkat cells. As to the kind of experiment: Mitochondrial membrane potential of Jurkat cells (DiIC1(5)). The conditions noted are these: 48 h; 5 at nontoxic concentrations ≤ 10 μM; 12 at all tested concentrations. It is filed as cell-based, human. On the procedure: Jurkat cells were counted in MUSE Cell Analyzer using MUSE® Count &Viability Assay Kit (Merck-Millipore, Billerica, MA, USA) and adjusted to a density of 1.0 × 10^5/mL in RPMI 1640 medium (with 10% FCS and 1% glutamine). A total of 9000 cells per well per 90 μL were seeded into 96 well culture plates. The 50 mM prodrug stock solutions were diluted to 300, 100, 30, and 10 μM in cell culture medium and 10 μL of the dilutions was pipetted to the cells, receiving final test concentrations of 30, 10, 3, and 1 μM. Every concentration was tested in triplicates. Cells with corresponding amounts of DMSO served as negative controls. […] Cells were incubated for 20 min at 4 °C and then analyzed in Gallios cytofluorometer™ (Beckman Coulter, Fullerton, CA, USA). Fitc and propidium iodide were excited at 488 nm; Fitc fluorescence was recorded on the FL1 sensor (525/38 nm band pass, BP) and propidium iodide fluorescence was detected on FL3 sensor (620/30 nm BP), DiIC1(5) fluorescence was excited at 638 nm and detected on FL6 sensor at 675/20 nm. Monobromobimane fluorescence was excited at 405 nm and detected on FL9 sensor at 430/40 nm. To eliminate any fluorescence bleed-through, electronic compensation was used. Data were analyzed employing Kaluza™ software Version 1.2 (Beckman Coulter, Fullerton, CA, USA) and processed in Microsoft Excel. […]

As for `COC(=O)CCCCCn1cc(CN(C(=O)OCc2ccc(B3OC(C)(C)C(C)(C)O3)cc2)[c-]2cccc2)nn1.[Fe+2].c1cc[cH-]c1` [prodrug 9], the “Solubility in DPBS” value in data set [1] (DPBS containing DMSO (1%, v/v)) was determined as 90 ± 10 µM. Moreover, in data set [1] (RPMI medium containing 20% FBS and DMSO (1%, v/v)), the “Solubility in FBS” value was determined as 114 ± 11 µM. Further, the IC50 is 37 ± 2 µM in the data set with BL-2 cells (24 h incubation); 35 ± 2 µM in the data set on BL-2 cells (48 h incubation); 33 ± 2 µM in the data set on BL-2 cells (96 h incubation); 42 ± 3 µM in the data set on A2780 cells (24 h incubation); 32 ± 3 µM in the data set with A2780 cells (48 h incubation); 30 ± 5 µM in the data set with A2780 cells (96 h incubation). Further, the IC50 was greater than 50 µM with DU-145 cells (24 h incubation); 47 ± 2 µM with DU-145 cells (48 h incubation); 35 ± 3 µM in the data set on DU-145 cells (96 h incubation); 30 ± 4 µM in the data set on Jurkat cells [2]; greater than 50 µM in the data set on HDFa cells. Moreover, the “Mechanism of cell death of Jurkat cells” value with Jurkat cells [2] is listed as “mostly via necrosis”.

Regarding `O=S(=O)([O-])[O-].[Fe+2]` [FeSO4], in data set [3], the “Initial rate (dF/dt)0 of DCFH oxidation in the presence of H2O2” value was found to be 22.3 a.u. × min^−1 and the “Activity in DCFH oxidation assay relative to prodrug 5” value stood at 2.9 fold.

`CCCC[P+](c1ccccc1)(c1ccccc1)c1ccccc1` [control 12]: the IC50 in the data set on BL-2 cells (BL2, 24 h incubation) is 2 ± 1 µM; with BL-2 cells (BL2, 48 h incubation), 0.5 ± 0.2 µM; in the data set on BL-2 cells (BL2, 96 h incubation), 0.3 ± 0.1 µM; in the data set with HDFa cells (Homo sapiens, HDFa) it was less than 1 µM. For the same compound, the “Mechanism of cell death of Jurkat cells” value in the data set on Jurkat cells [2] was “mostly via necrosis”. Besides, the “Effect on mitochondrial potential of Jurkat cells” value in the data set on Jurkat cells [4] was “reduces the mitochondrial potential”.

With `C#Cc1ccc(-c2c3ccc(=[N+](C)C)cc-3oc3cc(N(C)C)ccc23)c(C(=O)[O-])c1` [control 13], the IC50 with BL-2 cells (BL2, 48 h incubation) is 35 ± 6 µM; in the data set on A2780 cells (Homo sapiens, A2780, 48 h incubation), greater than 50 µM.

As for `[Fe+2].c1cc[cH-]c1.c1cc[cH-]c1` [control 11, ferrocene], the concentration for half-maximal inhibition (IC50) in the data set on BL-2 cells (24 h incubation), with BL-2 cells (48 h incubation), in the data set with BL-2 cells (96 h incubation), in the data set on A2780 cells (24 h incubation), in the data set with A2780 cells (48 h incubation) and in the data set with A2780 cells (96 h incubation) was greater than 50 µM throughout. Also, the IC50 in the data set with DU-145 cells (24 h incubation), in the data set on DU-145 cells (48 h incubation), in the data set with DU-145 cells (96 h incubation) and in the data set with Jurkat cells [2] was greater than 50 µM in each case.

For `CC1(C)OB(c2ccc(COC(=O)N(Cc3cccc(CN4CCCCC4)c3)[c-]3cccc3)cc2)OC1(C)C.[Fe+2].c1cc[cH-]c1` [prodrug 8], in data set [3], the “Initial rate (dF/dt)0 of DCFH oxidation in the presence of H2O2” value turned out to be 17.1 a.u. × min^−1 and the “Activity in DCFH oxidation assay relative to prodrug 5” value was 2.2 fold.

For the origin of these results see PMC7321169, “N-Alkylaminoferrocene-Based Prodrugs Targeting Mitochondria of Cancer Cells” (Molecules, 2020).
